Measured values reported in patent US20050245471A1, “Combination products for use in antitumoral treatment” (priority 2002, published 2005).

Each substance was assayed on CSF-1 (assay: Quantification of CSF-1 secreted by NS2T2A1 cells transfected with oligonucleotides (ELISA)). Details: 250 nM oligonucleotide with 2.4 μg/ml cytofectin GS-3815, ELISA of culture medium 24 h after beginning of transfection, relative to non-transfected cell line.
Type: cell-based, human
Method: Line NS2T2A1 is a line of cells from the human breast (Ma et al., Int. J. Cancer, 1998, 78: 112-119) obtained by mammoplasty, transformed by SV40. This line secretes CSF-1 linearly as a function of the cell growth.
The cells were cultivated in medium M5 (Gibco, France) complemented with 5% of -horse serum as described by Ma et al. (Int. J. Cancer, 1998, 78:112-119). Seeding was done in 6 well plates at a concentration, of 5×10^5 cells/ml/well. Transfection by oligonucleotides was done 24 h later, when the cells were in the exponential growth phase and they had reached 60% to 80% of confluence.
Transfection by oligonucleotides was done using cytofectin GS-3815 (Glen research, Sterling. Va.). Oligonucleotides and cytofectin were diluted separately in polystyrene tubes with the opti-MEM medium (Gibco, France), and the cytofectin was mixed with an equal volume of diluted oligonucleotides. The mix was left for 15 minutes at ambient temperature to enable the formation of oligonucleotide/cytofectin complexes. Finally, the M5 medium was added to the solution to obtain final concentrations equal to 2.4 μg/ml of cytofectin and 250 nM of oligonucleotides. All transfections were done in the M5 medium and in a final volume of 1 ml. Oligonucleotide/cytofectin complexes were left in contact with cells for 24 h. All steps described above were done under sterile conditions.
All experiments were done in triplicate for each concentration of oligonucleotides.
The quantity of CSF-1 secreted in the culture medium of NS2T2A1 cells was-measured by an ELISA test, 24 h after the beginning of the transfection, referring strictly to the protocol described by the supplier (R&D systems, Europe Ltd, UK). The results are expressed as a percentage of CSF-1 expressed by the transfected cells with respect to the CSF-1 expressed by a non-transfected cell line.

Row | Substance | Percentage of CSF-1 expressed [%]
1 | SEQ ID No. 2: phosphorothioate oligonucleotide with pdU/pdC base substitutions, hybridising region 135-152 of SEQ ID No. 1 (CSF-1) (GGGAGGGUGCUGUACCGA; listed as RNA, chemistry not fully specified) | 70
2 | SEQ ID No. 4: phosphorothioate oligonucleotide with pdU/pdC base substitutions, hybridising region 341-358 of SEQ ID No. 1 (CSF-1) (ACACGAUGGAAUUCUUCC; listed as RNA, chemistry not fully specified) | 50
3 | SEQ ID No. 5: phosphorothioate oligonucleotide with pdU/pdC base substitutions, hybridising region 409-426 of SEQ ID No. 1 (CSF-1) (UUGUGGCGGUUAGGGUAG; listed as RNA, chemistry not fully specified) | 90
4 | SEQ ID No. 3: phosphorothioate oligonucleotide with pdU/pdC base substitutions, hybridising region 284-301 of SEQ ID No. 1 (CSF-1) (UCUGGAGCAGGUUAAU; listed as RNA, chemistry not fully specified) | 39
